# Data taken from PMC7057948, “A genome-wide approach for identification and characterisation of metabolite-inducible systems” (Nature Communications, 2020).
# Counter-ions that a name gives are not always drawn.
# Columns and labels:
# BenM [1] = biological target: T1, BenM (Cupriavidus necator, UniProt Q0KAA5); experiment: cell-based; design: RFP reporter induction by transcription factor biosensor, single time-point fluorescence in LB, relative to primary effector; settings: Escherichia coli TOP10; relative to primary effector, E. coli, LB; read-out: % activation
# T1 construct: native full-length gene, divergent to operon starting at H16_RS09790; reporter plasmid pEH148 (plasmid assigned by list order)
# T1 sequence (Q0KAA5 1-305): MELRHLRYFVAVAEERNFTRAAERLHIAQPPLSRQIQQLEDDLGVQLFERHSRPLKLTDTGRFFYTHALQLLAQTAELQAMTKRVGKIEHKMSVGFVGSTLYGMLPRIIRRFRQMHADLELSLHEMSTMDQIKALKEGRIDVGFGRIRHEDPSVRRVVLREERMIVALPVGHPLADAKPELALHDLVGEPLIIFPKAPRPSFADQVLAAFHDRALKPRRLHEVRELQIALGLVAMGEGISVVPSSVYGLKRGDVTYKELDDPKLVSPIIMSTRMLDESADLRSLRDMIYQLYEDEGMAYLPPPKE
# Description: (§1) TRs often recognise molecules that are structurally similar to their primary effectors. For example, isopropyl β-D-1-thiogalactopyranoside is a commonly used structural analogue of allolactose, employed to control the expression of genes regulated by LacI. Here, the TR’s specificity was investigated to identify previously uncharacterised ligand–TR interactions and consequently extend the biosensor application to the detection of structurally similar or metabolically related compounds. To do so, the library of 21 native and heterologous inducible systems was screened against 46 compounds using an integrated robotic platform, as described in the previous section. […] Similarly to the former orthogonality screen (Fig. 6a), it should be noted that activation of reporter gene expression by the extracellularly added compounds likely indicates a structural resemblance to the primary ligand, a metabolic relationship or a combination thereof. To shed light on their cause of system activation, cultures of E. coli carrying the functional formate-, [compound left out]-, benzoate-, 3,4-dihydroxybenzoate-, acetoin- and β-alanine-inducible systems, active in this host organism, were evaluated for the same cross-reactivity (Supplementary Table 5).  Fig. 3 C. necator native systems mediate controllable gene expression in E. coli and P. putida. Single time-point fluorescence measurements of a, b E. coli and c, d P. putida carrying the C. necator-inducible gene expression systems composed of TR and promoter a, c or ‘promoter only’ version b, d. The plasmids harbouring the individual system– or promoter–reporter gene constructs are indicated. RFP fluorescence output was determined in the absence of inducer (light purple and light blue) and 6 h after extracellular supplementation with the corresponding primary effector to a final concentration of 5 mM (dark purple and dark blue). Data are mean ± SD, n = 3, *p < 0.05, **p < 0.01, ***p ≤ 0.001, ****p ≤ 0.0001, unpaired two-tailed t-test. Source data are provided as a Source Data file. All strains used in this study are listed in Supplementary Table 7. E. coli TOP10 (Life Technologies) was used for cloning and plasmid propagation. For single time-point fluorescence measurements and flow cytometric analyses, bacterial strains were propagated in Luria-Bertani (LB) medium. To determine the dose–responses and to evaluate inducer TR cross-reactivity, C. necator was cultivated in MM containing 1 g/L NH4Cl, 9 g/L Na2HPO4·12H2O, 1.5 g/L KH2PO4, 0.2 g/L MgSO4·7H2O, 0.02 g/L CaCl2·2H2O and 0.0012 g/L (NH4)5[Fe(C6H4O7)2] with 1 mL/L trace element solution SL7 (1.3 mL/L 25% (w/v) HCl, 0.07 g/L ZnCl2, 0.1 g/L MnCl2·4H2O, 0.062 g/L H3BO3, 0.190 g/L CoCl2·6H2O, 0.017 g/L CuCl2·2H2O, 0.024 g/L NiCl2·6H2O and 0.036 g/L Na2MoO4·2H2O) supplemented with 0.4% (w/v) sodium gluconate. If required, antibiotics were added to the growth medium at the following concentrations: 12.5 µg/mL tetracycline or 25 µg/mL chloramphenicol for E. coli, 50 µg/mL chloramphenicol for C. necator and 25 µg/mL tetracycline for P. putida. For solid media preparation, 15 g/L agar was added.
# FdsR [2] = biological target: T2, FdsR (Cupriavidus necator, UniProt Q0KDY4); experiment: cell-based; design: RFP reporter induction by transcription factor biosensor, single time-point fluorescence in LB, relative to primary effector; settings: Escherichia coli TOP10; relative to primary effector, E. coli, LB; read-out: % activation
# T2 construct: native full-length gene, divergent to operon starting at H16_RS03165; reporter plasmid pEH134 (plasmid assigned by list order)
# T2 sequence (Q0KDY4 1-364): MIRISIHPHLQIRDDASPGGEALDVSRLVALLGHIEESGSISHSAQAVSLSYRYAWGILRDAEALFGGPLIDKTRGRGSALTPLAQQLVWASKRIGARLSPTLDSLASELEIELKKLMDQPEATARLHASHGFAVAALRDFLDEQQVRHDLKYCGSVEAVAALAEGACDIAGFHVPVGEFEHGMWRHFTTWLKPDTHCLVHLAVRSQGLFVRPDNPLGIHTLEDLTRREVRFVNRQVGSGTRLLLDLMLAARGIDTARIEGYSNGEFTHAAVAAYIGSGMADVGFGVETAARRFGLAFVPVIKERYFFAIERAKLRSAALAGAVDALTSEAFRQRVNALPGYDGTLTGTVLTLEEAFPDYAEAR
# Description: as §1
# FdsR [3] = experiment: cells; design: species or system Cupriavidus necator H16; RFP reporter induction by transcription factor biosensor, fluorescence normalised to cell density, relative to primary effector; settings: 6 h; relative to primary effector, C. necator, MM; read-out: % activation
# Procedure: (§2) To screen the 441 combinations of inducer and biosensor for cross-reactivity, we employed an automated platform (see Methods section). Strains of C. necator harbouring the inducible systems were grown in MM and transferred to a 96-well microtiter plate format. After the inducers had been extracellularly added, cells were cultured for 6 h before RFP fluorescence and cell density were measured. […] The remaining six inducible systems were activated by one or more metabolites other than their cognate inducers. This cross-reactivity may be the result of either structural resemblance, a metabolic relationship or a combination thereof. For example, L-phenylalanine is converted into L-tyrosine by the phenylalanine 4-monooxygenase PhhA (H16_RS18365). Therefore, activation of the L-tyrosine-inducible system by L-phenylalanine is more likely to be due to biological conversion of the added compound into the primary effector rather than direct interaction of L-phenylalanine with HpdA. However, since the difference between the two molecules lies in a singly hydroxyl-group, an induction by structural resemblance cannot be entirely ruled out. The same applies to phenylglyoxylate that activated the benzoate-inducible system. Phenylglyoxylate is converted by C. necator into benzoate via a two-step reaction with benzaldehyde as intermediate compound. During the first reaction, carbon dioxide is generated that may also explain induction of the formate-inducible system by the structurally dissimilar phenylglyoxylate. Since carbon dioxide can subsequently be converted into formate, it is rational to postulate that the FdsR/PH16_RS03165-inducible system is activated in this case by its primary inducer. In addition to phenylglyoxylate, the benzoate-inducible system was activated by extracellular supplementation with cyclohexanecarboxylate and cumate. Cyclohexanecarboxylate shares both a structural resemblance to benzoate and downstream  Fig. 6 Orthogonality of inducible systems. a Cross-reactivity of a set of 21 inducible systems and their corresponding primary inducers. The heat map illustrates induction of reporter gene expression in the presence of the metabolite (in %) relative to the induction mediated by the corresponding primary effector. Measurements were taken 6 h after supplementation with inducer at a final concentration of 5 mM. Data are mean, n = 4. Source data are provided as a Source Data file. b Fluorescence output of individual cells of C. necator carrying pEH263 measured by flow cytometry. The vector pEH263 contains the 3,4-dihydroxybenzoate- and [compound left out]-inducible systems controlling expression of rfp and egfp, respectively. Fluorescence was determined in the absence of inducer (orange), in the presence of 3,4-dihydroxybenzoate (blue), [compound left out] (green), and both 3,4-dihydroxybenzoate and [compound left out] (purple). Effector concentrations correspond to their respective Km’s and fluorescence was measured 2 h after inducer addition.
# BenM [4] = experiment: cells; design: species or system Cupriavidus necator H16; RFP reporter induction by transcription factor biosensor, fluorescence normalised to cell density, relative to primary effector; settings: 6 h; relative to primary effector, C. necator, MM; read-out: % activation
# Procedure: as §2
# PhgR = tested on: T3, PhgR; experiment: RFP reporter dose-response in C. necator H16, Hill fit; assay type: cell-based, Cupriavidus necator; settings: inducer concentration for half-maximal activation; extracellular inducer, minimal medium, 30 °C, 80 min; whole cells with chromosomal regulator copy; read-out: Km^b
# T3 construct: native full-length gene, divergent to operon starting at H16_RS05530; reporter plasmid pEH155 (plasmid assigned by list order)
# NahR = biological target: T4, NahR (Cupriavidus necator, UniProt G0EUZ9); experiment: as above; assay type: cell-based; settings: read-out: Km^b
# T4 construct: native full-length gene, divergent to operon starting at H16_RS08125; reporter plasmid pEH042 (plasmid assigned by list order); not the P. putida NahR
# T4 sequence (G0EUZ9 1-300): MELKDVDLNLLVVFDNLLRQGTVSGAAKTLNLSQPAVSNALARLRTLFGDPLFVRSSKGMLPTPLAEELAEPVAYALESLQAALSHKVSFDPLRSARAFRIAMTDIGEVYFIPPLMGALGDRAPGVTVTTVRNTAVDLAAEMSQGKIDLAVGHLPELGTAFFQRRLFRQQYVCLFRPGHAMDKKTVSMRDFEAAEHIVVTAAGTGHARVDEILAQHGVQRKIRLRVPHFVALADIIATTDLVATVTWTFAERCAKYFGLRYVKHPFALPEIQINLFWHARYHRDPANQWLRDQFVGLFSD
# Description: RFP reporter dose-response in C. necator H16, Hill fit on NahR
# BenM [5] = biological target: T1, BenM; experiment: as above; assay type: cell-based; settings: read-out: Km^b
# Description: RFP reporter dose-response in C. necator H16, Hill fit on BenM
# TtdR = tested on: T5, TtdR; experiment: as above; assay type: cell-based, Cupriavidus necator; settings: inducer concentration for half-maximal activation; extracellular inducer, minimal medium, 30 °C, 80 min; whole cells with chromosomal regulator copy; read-out: Km^b
# T5 construct: native full-length gene, divergent to operon starting at H16_RS10665; reporter plasmid pEH083 (plasmid assigned by list order)
# Description: RFP reporter dose-response in C. necator H16, Hill fit on TtdR
smiles,measurement,setting,value
"O=C(O)C(=O)c1ccccc1 [compound 4, Phenylglyoxylate]",activity at 5000 µM,BenM [1],0.19%
same,activity at 5000 µM,FdsR [2],0%
same,activity at 5000 µM,FdsR [3],52%
same,activity at 5000 µM,BenM [4],17%
same,EC50,PhgR,595 ± 133 µM
"O=C(O)c1ccccc1O [compound 5, Salicylate]",EC50,NahR,2.12 ± 0.49 µM
"O=C(O)c1ccccc1 [compound 6, Benzoate]",EC50,BenM [5],12.6 ± 0.8 µM
"O=C(O)C(O)C(O)C(=O)O (centres unmarked) [compound 7, Tartrate]",EC50,TtdR,61500 ± 22900 µM
